Test results reported in patent US10428099B2, “Pharmaceutical co-crystal composition and use thereof” (SYN-NAT PRODUCTS ENTERPRISE LLC, priority 2015, dated 2019).
Like-named read-outs stand apart in the source and are kept apart here.

Assays:
PC-3 cells = experiment: MTS cell viability assay (CellTiter 96 AQueous One) in PC-3 prostate cancer cells; format: cell-based, human; conditions: step-wise concentrations 0.01 to 300 μM, OD490, FIG. 1
Method: (§1) The index of cell growth repression ratio was obtained by comparing the OD490 data of treatment group to the negative control. The drug response rate IC50 was calculated with the SPSS 16.0 system.
(§2) Cell culture: Prostate cancer cell lines LNCaP and PC-3 were purchased from ATCC (Manassas, Va.). […] The cells were cultured in RPMI+5% Fetal Bovine Serum (FBS).
(§3) The cells treated with the solvents were used as the negative control, and cisplatin and docetaxel were used as the positive controls. The cells were monitored daily, and the cell viability was evaluated with the Promega CellTiter 96 AQueous One Solution Cell Proliferation Assay (Promega, Madison, Wis., USA) according to the manufacture manuals. The cell viability was monitored at OD490 reading in a bio-spectrometer (Perkin Elmer, Walthan, Mass., USA).
(§4) Data analysis: The OD490 reading data were collected hourly from 1 h to 4 h after the addition of lysis buffer. The index of cell growth repression ratio was obtained by comparing the OD490 data of treatment to the negative control. The drug response rate IC50 was calculated with the SPSS 16.0.

LNCaP cells = experiment: MTS cell viability assay (CellTiter 96 AQueous One) in LNCaP prostate cancer cells; format: cell-based, human; conditions: step-wise concentrations 0.01 to 300 μM, OD490, FIG. 2
Method: as §1, §2, §3
Data analysis: The OD490 reading data were collected hourly from 1 h to 4 h after the addition of lysis buffer. The index of cell growth repression ratio was obtained by comparing the OD490 data of treatment to the negative control.

HL-7002 cells [1] = conditions: step-wise concentrations 0.01 to 300 μM, OD490, FIG. 3 and FIG. 7
HEK293 cells = conditions: step-wise concentrations 0.01 to 300 μM, OD490, FIG. 4 and FIG. 8
HCT-116 cells = experiment: MTS cell viability assay in colorectal cancer cell line HCT-116; format: cell-based; conditions: step-wise concentrations 0.01 to 300 μM, OD490, FIG. 5, read-out: IC50 for the reduction of HCT-116 cell number
Method: as §1
(§5) The cells were cultured in RPMI+5% Fetal Bovine Serum (FBS).
(§6) The cells were monitored daily, and the cell viability was evaluated with the Promega CellTiter 96 AQueous One Solution Cell Proliferation Assay (Promega, Madison, Wis., USA) according to the manufacture manuals. The cell viability was monitored at OD490 reading in a bio-spectrometer (Perkin Elmer, Walthan, Mass., USA).
as §4

HT29 cells = experiment: MTS cell viability assay in colorectal cancer cell line HT29; format: cell-based; conditions: step-wise concentrations 0.01 to 300 μM, OD490, FIG. 6
Method: HT29 cells are a colorectal cancer cell line. […] The index of cell growth repression ratio was obtained by comparing the OD490 data of treatment group to the negative control. The drug response rate IC50 was calculated with the SPSS 16.0 system.
as §5, §6, §4

HL-7002 cells [2] = experiment: cells; conditions: Homo sapiens, Hepatocyte

| Molecule | IC50 (PC-3 cells) [µM] | IC50 (LNCaP cells) [µM] | IC50 (HL-7002 cells [1]) [µM] | IC50 (HEK293 cells) [µM] | IC50 (HCT-116 cells) [µM] | IC50 (HT29 cells) [µM] | IC50 (HL-7002 cells [2]) [µM] |
| --- | --- | --- | --- | --- | --- | --- | --- |
| cisplatin | 2.49 | 2.25 | 2.01 | 6.9 | – | – | – |
| O=C1[O][Pt]2([NH][C@@H]3CCCC[C@H]3[NH]2)[O]C1=O [oxaliplatin] | – | – | 2.44 | 10.1 | 8.15 | 30 | – |
| CC(=O)O[C@@]12CO[C@@H]1C[C@H](O)[C@@]1(C)C(=O)[C@H](O)C3=C(C)[C@@H](OC(=O)[C@H](O)[C@@H](NC(=O)OC(C)(C)C)c4ccccc4)C[C@@](O)([C@@H](OC(=O)c4ccccc4)[C@H]21)C3(C)C [docetaxel] | – | – | – | – | – | – | 0.095 |
